# Legend:
# db/db MSC [1] = assay: Oxidative/nitrative stress in db/db MSC (DCF-DA staining, nitrotyrosine); format: cell-based, mouse; settings: db/db MSC in vitro
# From the text: Data are expressed as % positive DCF-DA cells/hpf. m±sd, n=5, *p<0.05. […] The db/db MSC expressed a greater oxidative/nitrative stress than WT MSC. […] In summary, in vitro, db/db MSC show greater oxidative nitrostive stress than WT MSCs and this phenotype can be reversed by N-acetylcysteine (NAC).
# db/db MSC [2] = assay: Differentiation of db/db MSC towards endothelial cells (CD31 staining); format: cell-based, mouse; settings: endogenic medium
# Method: Endothelial cells were identified by CD31 staining. m±sd, n=4, *P<0.05.
# Adipocytes were identified by Oil Red O staining. m±sd, n=4, *p<0.05 vs control. […] Endothelial cells were identified by CD31 staining. m±sd, n=4, *p<0.05 vs control, #p<0.05 vs 5 nM.
# db/db MSC [3] = assay: Basal protein expression in db/db MSC (western blot); format: cell-based, mouse
# [4] = tested on: HSCs from hypercholesterolemic mice; assay: H2O2 in lysates from freshly harvested HSCs; set-up: species or system mouse; settings: ApoE and HCD mice, in vivo treatment
# Method: HSCs were purified from bone marrow mononuclear cells by multi-parameter FACS sorting using the surface phenotype cKit^+Sca-1^+CD90.1^lowLin^−. A greater percentage of HSCs from ApoE^−/− and HCD mice stain with 2′,7′-dichlorofluorescein diacetate than WT KSL cells, indicating a higher oxidant level in cells from hypercholesterolemic mice. Two additional assays were carried out that confirmed this earlier finding: first, the level of H2O2 in HSC cell lysates, determined by spectrophotometry, was greater in ApoE^−/− and HCD mice than in WT mice (FIG. 42A).
# p38 MAPK = assay: Phosphorylated (activated) p38 MAPK expression in HSCs; format: in vivo, mouse
# From the text: Activation of p38 MAPK by ROS has been reported in Atm^−/− mice and this event participates in ROS-induced loss of HSC quiescence. Expression of p38 MAPK was similar in HSCs from ApoE^−/−, HCD, and WT mice. However, expression of activated (phosphorylated) p38 MAPK is greater in HSCs from hypercholesterolemic mice than from WT mice (FIGS. 44A and 44B). FIGS. 44A-44C show p38 MAPK activation is greater in HSC from hypercholesterolemic mice. […] Neither treatment affected the outcome of competitive transplant with WT HSCs. m±sd, n=5 mice per group, *p<0.05 vs. WT, † p<0.05 vs. ApoE.
# [5] = tested on: hematopoietic stem cells (HSCs); assay: DCF-DA staining of HSCs from hypercholesterolemic mice (Example 6); format: in vivo, mouse; settings: ApoE^−/− and HCD mice, 100 mg/Kg i.p. every other day for 4 weeks
# From the text: All mice were purchased from Jackson Laboratories (Bar Harbor, Me.) and were maintained in the mouse barrier facility. Care of mice was in accordance with NIH guidelines and the Institutional Animal Care and Use Committee of the University of Massachusetts Medical School approved all protocols. Mice were kept on a 12 hr day/night schedule and were allowed free access to chow and water. ApoE^−/− and WT mice were fed standard mouse chow (5.4 g fat/100 g diet, 0% cholesterol). HCD mice were fed a diet with 10 g fat/100 g diet, […] (Research Diets, New Brunswick, N.J.). […] Azoxymethane (AOM) was given by intraperitoneal injection (10 mg/Kg weekly for 3 weeks); 1% dextran sodium sulfate was added to the drinking water for the Pt week after AOM treatment. It is known that hypercholesterolemia induces oxidant stress in many cell types. […] FIGS. 49A-49C show hypercholesterolemia increases oxidant levels in hematopoietic stem cells. […] (B) Representative photomicrograph showing oxLDL-staining in HSC and BM-MNC from WT and ApoE^−/− mice. (C) Regression of mean polyp number/mouse on the % of HSC staining for DCF-DA. […] Statistical analysis was carried out using the means for each group. […] One of the principal means by which hypercholesterolemia induces oxidant stress is via the generation of oxidized low density lipoprotein (oxLDL).
# ApoE^−/−-derived HSCs = assay: HSC transplantation into lethally irradiated WT recipients; format: in vivo, mouse; settings: 12 weeks after transplant; ApoE^−/− donors pretreated 4 weeks
# Method: HSC were purified from freshly harvested bone marrow mononuclear cells as c-Kit^+Sca-1^+CD90.1^lowLin^− by FACS sorting. Recipient mice were C57BL/6 (WT) on standard chow. Recipients underwent lethal irradiation (1100 Rads delivered in 2 doses 3 hr apart). Immediately after the 2nd irradiation, recipients were anesthetized (2% isoflurane) and 10^6 HSC/0.1 ml sterile PBS were transplanted via retro-orbital injection. Mice were followed for 12 weeks before study or administration of AOM.
# It was next determined the oxidant status of HSCs transplanted into WT mice. To this end, lethally irradiated WT mice were transplanted with HSCs from WT or ApoE^−/− mice, or with HSCs harvested from ApoE^−/− mice pretreated with NAC for 4 weeks. […] Numbers in each representative FACS analysis are the m±sd for that group; n=5; *p<0.05 vs. WT→WT group; †p<0.05 for ApoE+NAC→WT vs. Apoe→WT.
# Fyn = Fyn expression in total thymocyte population; format: in vivo, mouse; settings: ApoE^−/− and HCD mice
# From the text: Fyn, a member of the Src family of tyrosine kinases, is a critical participant in NKT cell development (33,34). […] FIGS. 55A-55C show Thymocyte Fyn expression is reduced in hypercholesterolemic mice. […] Representative western blots from 3 mice in each group, all run on the same gel, are shown. […] However, in DN3 and DN4 thymocytes, Fyn mRNA expression was less in ApoE^−/− than in WT mice. m±sd, *p<0.05 vs. WT; n=4 mice per group. (C) siRNA for Notch1 reduced mRNA expression of Fyn in WT thymocytes in vitro, with a threshold observed at 1.0 μg siRNA. m±sd, n=3 mice; *p<0.05 vs. random RNA. A representative western blot showing a single experiment run on the same gel is shown. […] These findings indicate that Notch1 and Fyn expression are linked, and that the reduced NKT expression in hypercholesterolemic mice is due, in part, to the Notch1 dependent reduction of Fyn expression in thymocytes. Finally, Fyn expression was determined in the total thymocyte population from WT recipient mice transplanted with ApoE^−/−- or WT-derived HSCs. Thymocyte Fyn expression in WT recipients transplanted with ApoE^−/−-derived HSCs was less than half that observed in WT recipients transplanted with WT-derived HSCs (FIG. 56). […] Fyn expression in thymocytes from the Apoe→WT group was less than in the WT→WT group. m±sd; n=4; *p<0.05 vs. WT→WT group. […]
smiles,measurement,setting,value
"CC(=O)N[C@@H](CS)C(=O)O [NAC, N-acetylcysteine]","oxidative/nitrative stress (DCF-DA staining, nitrotyrosine accumulation)",db/db MSC [1],significantly reduced the presence of oxidative/nitrative stress
same,differentiation towards endothelial cells,db/db MSC [2],increased differentiation towards endothelial cells
same,eNOS expression,db/db MSC [3],no change in eNOS expression
same,phospho-eNOS expression,db/db MSC [3],increased phospho-eNOS expression
same,PPARγ expression,db/db MSC [3]; basal,reduced basal PPARγ expression
same,H2O2 in HSC lysates,[4],significantly decreased by in vivo NAC treatment
same,expression of activated p38 in HSCs,"p38 MAPK; ApoE^−/− mice, in vivo treatment",significantly reduced expression of activated p38 in ApoE^−/− HSCs
same,expression of activated p38 in HSCs,p38 MAPK; WT mice,had no effect on activated p38 expression in WT HSCs
same,DCF-DA staining in HSCs,[5],significantly reversed
same,percentage of γδT cells in peripheral blood and NKT cells in thymus and peripheral blood of WT recipients,ApoE^−/−-derived HSCs,"significantly less in WT recipients transplanted with ApoE^−/−-derived HSCs than WT mice transplanted with WT HSCs, or HSCs harvested from NAC-pretreated ApoE^−/− donor mice"
same,expression of Fyn in the total thymocyte population,Fyn,restored in vivo by treatment with NAC

# From patent US11090305B2, “Methods and compositions to reduce oxidative stress” (University of Massachusetts, priority 2009, dated 2021)
